This data set in a line: Storage stability, related substance test. The data set is classed as physicochemical. As to conditions: Raw material. The protocol:
Evaluation of Storage Stability of the Preparations
The storage stabilities of the preparations were evaluated according to the test criteria for related substances.

Turning to `C[C@]12C=CC(=O)N[C@@H]1CC[C@@H]1[C@@H]2CC[C@]2(C)[C@@H](C(=O)Nc3cc(C(F)(F)F)ccc3C(F)(F)F)CC[C@@H]12` [Dutasteride, 17β-N-[2,5-bis(trifluoromethyl)]phenylcarbamoyl-4-aza-5α-androst-1-en-3-one], the Judgement result is “Suitable”.
